Values quoted from earlier work, collected in patent US9474524B2, “Packaged antimicrobial medical device having improved shelf life and method of preparing same” (Ethicon, Inc., priority 2002, dated 2016).

Test system: S. aureus
Conditions: suitable growth medium; Bhargava, H. et al, American Journal of Infection Control, June 1996

SMILES: Oc1cc(Cl)ccc1Oc1ccc(Cl)cc1Cl [2,4,4′-trichloro-2′-hydroxydiphenyl ether]
- minimum inhibitory concentration (MIC) against S. aureus: 0.01 ppm
